We go through 24 compounds from patent US10457663B2, “Pyrazol-pyridine derivatives” (Hoffmann-La Roche Inc., priority 2016, dated 2019).

One data set has as its target T1, human EAAT3 (Homo sapiens, UniProt P43005).
T1 construct: expressed in transfected cells; host or cells: HEK-293
T1 sequence (P43005 1-524): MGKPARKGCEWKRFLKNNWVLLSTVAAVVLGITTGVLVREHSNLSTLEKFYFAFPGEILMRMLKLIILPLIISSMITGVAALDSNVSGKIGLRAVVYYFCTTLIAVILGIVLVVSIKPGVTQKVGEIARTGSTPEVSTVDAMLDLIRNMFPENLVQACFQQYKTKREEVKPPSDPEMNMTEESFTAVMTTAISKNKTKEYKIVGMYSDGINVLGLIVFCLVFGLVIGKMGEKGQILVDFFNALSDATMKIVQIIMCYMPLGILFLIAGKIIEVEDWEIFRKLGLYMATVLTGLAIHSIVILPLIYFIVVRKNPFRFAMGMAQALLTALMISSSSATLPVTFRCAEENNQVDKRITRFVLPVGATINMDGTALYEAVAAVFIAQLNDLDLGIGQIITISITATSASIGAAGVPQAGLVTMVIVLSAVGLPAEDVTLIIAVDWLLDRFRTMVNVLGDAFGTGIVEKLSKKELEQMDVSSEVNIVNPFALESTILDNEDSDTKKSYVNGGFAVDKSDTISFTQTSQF
Kind of data set: FLIPR Membrane Potential (FMP) assay. It counts as cell-based. The following applies: HEK-293 cells stably expressing human EAAT3; L-glutamate as agonist at EC80; antagonist applied 15 min before; Kb by Cheng-Prusoff from IC50. As to the method: The FLIPR Membrane Potential (FMP) assay
HEK-293 cells stably expressing human EAAT3 were seeded at 55 000 cells/well in growth medium (DMEM glutamate free (Invitrogen 11960-044), 1% Pen Strep (10 ml/l GIBCO BRL N^o 15140-023), 10% FCS non dialysed heat inactivated, 5 mg/l puromycin) in poly-D-lysine treated 96-well black microtiter plates with clear-bottom. After 24 h, the growth medium was removed and 100 μl/well of Krebs buffer (140 mM NaCl, 4.7 mM KCl, 2.5 mM CaCl2), 1.2 mM MgCl2, 11 mM HEPES, 10 mM D-glucose, pH=7.4) added. The cells were then loaded by adding 100 μl/well FMP assay dye (FLIPR Membrane Potential assay reagent, Molecular Devices). The 96-well plates were then incubated at 37° C. for 1 h. The depolarization of the cells will cause more dye to enter in the cells, where it will bind to intracellular proteins and lipids and cause an increase in the fluorescence signal. Antagonist potency at human EAAT3 was determined by using L-glutamate as agonist at a concentration which gives 80% of the maximum response. The antagonists were applied 15 min before the application of the agonist L-glutamate. The assays were performed at room temperature and measurements done by using a Fluorometric Imaging Plate Reader (FLIPR, Molecular Devices) and filter #2. Responses were measured as peak increase in fluorescence minus basal (i.e. fluorescence without addition of L-glutamate). Kb was determined using the Cheng-Prusoff equation Kb=IC50/[1+(A/EC50)], where IC50 is the concentration of the antagonist producing 50% inhibition, A is the concentration of the agonist against which the IC50 is being determined (at EC80) and EC50 is the concentration of the agonist producing 50% […].

In turn, `CC1(NC(=O)c2cc(-c3ccc(F)cc3)nc(-c3ccnn3C(C)(C)C)c2)CCS(=O)(=O)C1` (racemic) [Example 9, (RS)-2-(2-tert-Butylpyrazol-3-yl)-6-(4-fluorophenyl)-N-(3-methyl-1,1-dioxothiolan-3-yl)-pyridine-4-carboxamide] yielded a melting point of 192 °C. This compound came in with a Kb at human EAAT3 of 190 nM.

Turning to `CC(C)n1nccc1-c1cc(C(=O)NC(C)(C)C(F)(F)F)cc(-c2ccc(F)cc2)n1` [Example 44, 2-(4-Fluorophenyl)-6-(2-propan-2-yl-pyrazol-3-yl)-N-(1,1,1-trifluoro-2-methyl-propan-2-yl)-pyridine-4-carboxamide], the melting point was 186 °C. At human EAAT3, this compound returned a Kb of 560 nM.

Turning to `CC(C)(C)NC(=O)c1cc(-c2ccc(Cl)cc2)nc(-c2ccnn2CC2CC2)c1` [Example 40, N-tert-Butyl-2-(4-chlorophenyl)-6-[2-(cyclopropyl-methyl)-pyrazol-3-yl]-pyridine-4-carboxamide], the melting point worked out at 218 °C. This compound registered a Kb on human EAAT3 of 490 nM.

The compound `CCn1nccc1-c1cc(C(=O)NC(C)(C)C)cc(-c2ccc(C(F)(F)F)cc2)n1` [Example 41, N-tert-Butyl-2-(2-ethyl-pyrazol-3-yl)-6-[4-(trifluoromethyl)-phenyl]-pyridine-4-carboxamide] returned a melting point of 186 °C. On human EAAT3, this compound returned a Kb of 750 nM.

For the compound `CC(C)n1nccc1-c1cc(C(=O)NC(C)(C)CO)cc(-c2ccc(Cl)cc2)n1` [Example 51, 2-(4-Chlorophenyl)-N-(1-hydroxy-2-methylpropan-2-yl)-6-(2-propan-2-yl-pyrazol-3-yl)-pyridine-4-carboxamide], the melting point stood at 165 °C. Also, the Kb at human EAAT3 worked out at 340 nM.

`CC(C)c1ccc(-c2cc(C(=O)NC(C)(C)C)cc(-c3ccnn3C(C)(C)C)n2)cc1` [Example 20, N-tert-Butyl-2-(2-tert-butyl-pyrazol-3-yl)-6-(4-propan-2-yl-phenyl)-pyridine-4-carboxamide] had a melting point of 202 °C. Also, on human EAAT3, the Kb was determined as 100 nM.

In turn, `CC(C)(NC(=O)c1cc(-c2ccc(F)cc2)nc(-c2ccnn2C(C)(C)C)c1)C1CC1` [Example 15, 2-(2-tert-Butyl-pyrazol-3-yl)-N-(2-cyclopropyl-propan-2-yl)-6-(4-fluorophenyl)-pyridine-4-carboxamide] registered a melting point of 169 °C. The compound further had a Kb on human EAAT3 of 135 nM.

Turning to `CC(C)(C)NC(=O)c1cc(-c2ccc(F)cc2)nc(-c2ccnn2C(C)(C)C)c1` [Example 3, N-tert-Butyl-2-(2-tert-butyl-pyrazol-3-yl)-6-(4-fluorophenyl)-pyridine-4-carboxamide], the melting point amounted to 226 °C. For the same compound, at human EAAT3, the Kb was determined as 65 nM.

Compound `CC(C)(CO)NC(=O)c1cc(-c2ccc(Cl)cc2)nc(-c2ccnn2C(C)(C)C)c1` [Example 55, 2-(2-tert-Butyl-pyrazol-3-yl)-6-(4-chlorophenyl)-N-(1-hydroxy-2-methyl-propan-2-yl)-pyridine-4-carboxamide] displayed a melting point of 177 °C. This compound had an antagonist dissociation constant (Kb) on human EAAT3 of 73 nM.

The compound `CC(C)n1nccc1-c1cc(C(=O)NC(C)(C)C(F)(F)F)cc(-c2ccc(Cl)cc2)n1` [Example 50, 2-(4-Chlorophenyl)-6-(2-propan-2-yl-pyrazol-3-yl)-N-(1,1,1-trifluoro-2-methylpropan-2-yl)-pyridine-4-carboxamide] returned a melting point of 177 °C. For the same compound, on human EAAT3, the Kb amounted to 1430 nM.

`Cn1nccc1-c1cc(C(=O)NC(C)(C)C)cc(-c2ccc(Cl)cc2)n1` [Example 1, N-tert-Butyl-2-(4-chlorophenyl)-6-(2-methyl-pyrazol-3-yl)-pyridine-4-carboxamide]: the melting point stood at 184 °C. At human EAAT3, this compound displayed an antagonist dissociation constant (Kb) of 370 nM.

Turning to `CC(C)(C)NC(=O)c1cc(-c2ccc(F)c(F)c2)nc(-c2ccnn2C(C)(C)C)c1` [Example 19, N-tert-Butyl-2-(2-tert-butyl-pyrazol-3-yl)-6-(3,4-difluoro-phenyl)-pyridine-4-carboxamide], the melting point turned out to be 216 °C. This compound had an antagonist dissociation constant (Kb) at human EAAT3 of 50 nM.

`Cc1cc(-c2cc(C(=O)NC(C)(C)C)cc(-c3ccnn3C(C)C)n2)ccc1F` [Example 37, N-tert-Butyl-2-(4-fluoro-3-methyl-phenyl)-6-(2-propan-2-yl-pyrazol-3-yl)-pyridine-4-carboxamide]: the melting point was 160 °C. For the same compound, the antagonist dissociation constant (Kb) at human EAAT3 amounted to 400 nM.

Take `CC(C)(C)NC(=O)c1cc(-c2ccc(Cl)cc2)nc(-c2ccnn2C(C)(C)C)c1` [Example 4, N-tert-Butyl-2-(2-tert-butyl-pyrazol-3-yl)-6-(4-chlorophenyl)-pyridine-4-carboxamide]: the melting point came out at 204 °C. Also, the Kb at human EAAT3 stood at 160 nM.

`Cc1ccc(-c2cc(C(=O)NC(C)(C)C)cc(-c3ccnn3C(C)(C)C)n2)cc1` [Example 22, N-tert-Butyl-2-(2-tert-butyl-pyrazol-3-yl)-6-(4-methyl-phenyl)-pyridine-4-carboxamide] showed a melting point of 182 °C. In addition, the Kb on human EAAT3 is 54 nM.

Regarding `CCn1nccc1-c1cc(C(=O)NC(C)(C)C)cc(-c2ccc(F)cc2)n1` [Example 11, N-tert-Butyl-2-(2-ethylpyrazol-3-yl)-6-(4-fluorophenyl)-pyridine-4-carboxamide], the melting point was determined as 170 °C. The Kb on human EAAT3 came to 360 nM.

Turning to `CC(C)n1nccc1-c1cc(C(=O)NC(C)(C)C)cc(-c2ccc(C(F)(F)F)cc2)n1` [Example 6, N-tert-Butyl-2-(2-propan-2-yl-pyrazol-3-yl)-6-[4-(trifluoromethyl)-phenyl]-pyridine-4-carboxamide], the melting point came out at 173 °C. In addition, the Kb at human EAAT3 was determined as 450 nM.

`CC(C)(C)n1nccc1-c1cc(C(=O)NC(C)(C)C(F)(F)F)cc(-c2ccc(Cl)cc2)n1` [Example 54, 2-(2-tert-Butyl-pyrazol-3-yl)-6-(4-chlorophenyl)-N-(1,1,1-trifluoro-2-methyl-propan-2-yl)-pyridine-4-carboxamide]: the melting point was determined as 206 °C. For the same compound, the antagonist equilibrium constant (Kb) at human EAAT3 turned out to be 440 nM.

Compound `CC(C)(C)NC(=O)c1cc(-c2ccc(F)cc2)nc(-c2ccnn2CC2CC2)c1` [Example 12, N-tert-Butyl-2-[2-(cyclopropylmethyl)-pyrazol-3-yl]-6-(4-fluorophenyl)-pyridine-4-carboxamide] showed a melting point of 203 °C. The same compound yielded a Kb at human EAAT3 of 310 nM.

In the case of `CC(C)(NC(=O)c1cc(-c2ccc(Cl)cc2)nc(-c2ccnn2C(C)(C)C)c1)C1CC1` [Example 53, 2-(2-tert-Butyl-pyrazol-3-yl)-6-(4-chlorophenyl)-N-(2-cyclopropyl-propan-2-yl)-pyridine-4-carboxamide], the melting point was found to be 161 °C. The compound further gave a Kb at human EAAT3 of 860 nM.

For `CC(C)(C)NC(=O)c1cc(-c2ccc(Cl)c(F)c2)nc(-c2ccnn2C(C)(C)C)c1` [Example 24, N-tert-Butyl-2-(2-tert-butyl-pyrazol-3-yl)-6-(4-chloro-3-fluoro-phenyl)-pyridine-4-carboxamide], the melting point worked out at 208 °C. The compound further yielded a Kb at human EAAT3 of 110 nM.

`CCn1nccc1-c1cc(C(=O)NC(C)(C)C)cc(-c2ccc(Cl)cc2)n1` [Example 39, N-tert-Butyl-2-(4-chlorophenyl)-6-(2-ethyl-pyrazol-3-yl)-pyridine-4-carboxamide] returned a melting point of 179 °C. Also, the antagonist equilibrium constant (Kb) on human EAAT3 was determined as 510 nM.

As for `Cn1nccc1-c1cc(C(=O)NC(C)(C)C)cc(-c2ccc(F)cc2)n1` [Example 2, N-tert-Butyl-2-(4-fluorophenyl)-6-(2-methyl-pyrazol-3-yl)-pyridine-4-carboxamide], the melting point is 161 °C. The compound also registered a Kb at human EAAT3 of 560 nM.

The compound `Cc1ccc(-c2cc(C(=O)NC(C)(C)C)cc(-c3ccnn3C(C)(C)C)n2)cc1F` [Example 26, N-tert-Butyl-2-(2-tert-butyl-pyrazol-3-yl)-6-(3-fluoro-4-methyl-phenyl)-pyridine-4-carboxamide] came in with a melting point of 207 °C. In addition, on human EAAT3, the Kb is 89 nM.
